Test results taken from EPA's CvTdb concentration-time database.

Legend:
Assay in all cases: concentration in plasma after dosing
Rat [1] = conditions: dosed: Anthraquinone, 40 mg/kg, oral, Female, F344
Rat [2] = conditions: dosed: Anthraquinone, 400 mg/kg, oral, Male, F344
Rat [3] = conditions: dosed: Anthraquinone, 400 mg/kg, oral, Male, F344; remark: listed apart in the source
Rat [4] = conditions: dosed: Anthraquinone, 100 mg/kg, oral, Male, F344
Rat [5] = conditions: dosed: Anthraquinone, 40 mg/kg, oral, Female, Harlan Sprague Dawley
Rat [6] = conditions: dosed: Anthraquinone, 100 mg/kg, oral, Male, F344; remark: listed apart in the source
Rat [7] = conditions: dosed: Anthraquinone, 40 mg/kg, oral, Female, F344; remark: listed apart in the source
Rat [8] = conditions: dosed: Anthraquinone, 40 mg/kg, oral, Female, Harlan Sprague Dawley; remark: listed apart in the source
Rat [9] = conditions: dosed: Anthraquinone, 100 mg/kg, oral, Male, F344; remark: listed apart in the source
Rat [10] = conditions: dosed: Anthraquinone, 100 mg/kg, oral, Female, Harlan Sprague Dawley
Rat [11] = conditions: dosed: Anthraquinone, 100 mg/kg, oral, Male, F344; remark: listed apart in the source
Rat [12] = conditions: dosed: Anthraquinone, 40 mg/kg, oral, Male, Harlan Sprague Dawley
Rat [13] = conditions: 24 h; dosed: Anthraquinone; 40 mg/kg; oral; Male; F344
Rat [14] = conditions: dosed: Anthraquinone, 100 mg/kg, oral, Female, F344
Rat [15] = conditions: dosed: Anthraquinone, 100 mg/kg, oral, Male, F344; remark: listed apart in the source
Rat [16] = conditions: 24 h; dosed: Anthraquinone; 100 mg/kg; oral; Male; F344
Rat [17] = conditions: dosed: Anthraquinone, 400 mg/kg, oral, Male, F344; remark: listed apart in the source
Rat [18] = conditions: dosed: Anthraquinone, 100 mg/kg, oral, Male, F344; remark: listed apart in the source
Rat [19] = conditions: dosed: Anthraquinone, 100 mg/kg, oral, Male, F344; remark: listed apart in the source
Rat [20] = conditions: dosed: Anthraquinone, 400 mg/kg, oral, Male, F344; remark: listed apart in the source
Rat [21] = conditions: dosed: Anthraquinone, 40 mg/kg, oral, Female, Harlan Sprague Dawley; remark: listed apart in the source
Rat [22] = conditions: 24 h; dosed: Anthraquinone; 100 mg/kg; oral; Male; F344; remark: listed apart in the source
Rat [23] = conditions: dosed: Anthraquinone, oral
Rat [24] = conditions: dosed: Anthraquinone, 40 mg/kg, oral, Female, Harlan Sprague Dawley; remark: listed apart in the source
Rat [25] = conditions: dosed: Anthraquinone, 100 mg/kg, oral, Female, F344; remark: listed apart in the source
Rat [26] = conditions: dosed: Anthraquinone, 40 mg/kg, oral, Male, Harlan Sprague Dawley; remark: listed apart in the source
Rat [27] = conditions: dosed: Anthraquinone, 400 mg/kg, oral, Male, F344; remark: listed apart in the source
Rat [28] = conditions: dosed: Anthraquinone, 100 mg/kg, oral, Female, Harlan Sprague Dawley; remark: listed apart in the source
Rat [29] = conditions: dosed: Anthraquinone, 100 mg/kg, oral, Male, F344; remark: listed apart in the source
Rat [30] = conditions: dosed: Anthraquinone, 40 mg/kg, oral, Male, Harlan Sprague Dawley; remark: listed apart in the source
Rat [31] = conditions: dosed: Anthraquinone, 40 mg/kg, oral, Male, Harlan Sprague Dawley; remark: listed apart in the source
Rat [32] = conditions: dosed: Anthraquinone, 40 mg/kg, oral, Female, Harlan Sprague Dawley; remark: listed apart in the source
Rat [33] = conditions: dosed: Anthraquinone, 100 mg/kg, oral, Female, Harlan Sprague Dawley; remark: listed apart in the source
Rat [34] = conditions: dosed: Anthraquinone, 100 mg/kg, oral, Female, Harlan Sprague Dawley; remark: listed apart in the source
Rat [35] = conditions: dosed: Anthraquinone, 100 mg/kg, oral, Male, F344; remark: listed apart in the source
Rat [36] = conditions: dosed: Anthraquinone, 40 mg/kg, oral, Female, Harlan Sprague Dawley; remark: listed apart in the source

O=C1c2ccccc2C(=O)c2ccccc21 [Anthraquinone]
Conditions	concentration in plasma [ng/mL]
Rat [1], 1 h	36
Rat [1], 18 h	157
Rat [2], 2 h	352
Rat [2], 12 h	2500
Rat [3], 0.5 h	163
Rat [3], 24 h	1970
Rat [4], 2 h	120
Rat [4], 12 h	671
Rat [5], 1 h	57
Rat [5], 18 h	124
Rat [6], 0.5 h	41
Rat [6], 24 h	433
Rat [7], 1 h	61
Rat [7], 18 h	131
Rat [8], 2 h	128
Rat [8], 12 h	238
Rat [9], 0.5 h	27
Rat [9], 24 h	349
Rat [10], 4 h	255
Rat [10], 8 h	992
Rat [11], 0.5 h	28
Rat [11], 24 h	197
Rat [12], 4 h	131
Rat [12], 8 h	293
Rat [14], 1 h	63
Rat [14], 18 h	469
Rat [15], 1 h	72
Rat [15], 18 h	596
Rat [17], 1 h	345
Rat [17], 18 h	2880
Rat [18], 2 h	233
Rat [18], 12 h	719
Rat [19], 4 h	205
Rat [19], 8 h	522
Rat [20], 1 h	129
Rat [20], 18 h	2320
Rat [21], 2 h	90
Rat [21], 12 h	224
Rat [24], 1 h	65
Rat [24], 18 h	87
Rat [25], 1 h	61
Rat [25], 18 h	538
Rat [26], 2 h	101
Rat [26], 12 h	255
Rat [27], 0.5 h	148
Rat [27], 24 h	2120
Rat [28], 4 h	262
Rat [28], 8 h	595
Rat [29], 1 h	55
Rat [29], 18 h	429
Rat [30], 2 h	99
Rat [30], 12 h	242
Rat [31], 4 h	117
Rat [31], 8 h	241
Rat [32], 4 h	136
Rat [32], 8 h	280
Rat [33], 2 h	192
Rat [33], 12 h	818
Rat [34], 2 h	210
Rat [34], 12 h	880
Rat [35], 4 h	323
Rat [35], 8 h	758
Rat [36], 4 h	111
Rat [36], 8 h	255

Conditions	concentration in plasma [ng/mL]
Rat [13]	66
Rat [16]	259
Rat [22]	210

concentration in plasma [ng/mL], Rat [23]
Conditions	0.5 h	1 h	2 h	4 h	8 h	12 h	18 h	24 h
40 mg/kg, Female, F344	–	30	–	–	–	–	191	–
40 mg/kg, Female, Harlan Sprague Dawley	–	61	154	149	249	224	103	65
40 mg/kg, Male, F344	–	–	–	–	–	–	–	26
40 mg/kg, Male, Harlan Sprague Dawley	–	–	87	101	203	204	–	–
100 mg/kg, Female, F344	–	66	–	–	–	–	652	–
100 mg/kg, Female, Harlan Sprague Dawley	–	–	127	232	721	610	–	–
100 mg/kg, Male, F344	–	63	157	259	611	696	415	261
400 mg/kg, Male, F344	106	235	285	–	–	2590	2700	1940
